Measurements published in patent US9499493B2, “2,4-pyrimidinediamine compounds and their uses” (Rigel Pharmaceuticals, Inc., priority 2002, dated 2016).

Each molecule was assayed on cultured human mast cells (CHMC) (assay: CHMC low cell density IgE activation: tryptase assay). Details: anti-IgE.
Type: cell-based
Protocol: Pellet CHMC cells (980 rpm, 10 min) and resuspend in pre-warmed MT. Add 65 ul of cells to each 96-well plate. Depending on the degranulation activity for each particular CHMC donor, load 1000-1500 cells/well. Mix four times followed by a 1 hr incubation at 37° C. […] Stimulate cells by adding 25 ul of 6× anti-IgE solution to the appropriate plates. Add 25 ul MT to un-stimulated control wells. Mix twice following addition of the anti-IgE. Incubate at 37° C. for 30 minutes. […] Spin plates at 1000 rpm for 10 min to pellet cells. Transfer 25 ul of supernatant to a 96-well black bottom plate and add 100 ul of freshly diluted tryptase substrate solution to each well. Incubate plates at room temperature for 30 min.
Work on `CNC(=O)COc1cccc(Nc2ncc(F)c(Nc3cccc(-c4nnc(-c5ccccc5)o4)c3)n2)c1` [R926870, 5-Fluoro-N2-[3-(N-methylamino)carbonylmethyleneoxyphenyl]-N4-[3-(2-phenyl-1,3,4-oxadiazol-5-yl)phenyl]-2,4-pyrimidinediamine] yielded an IC50 of 3290 nM. `CC(C)Oc1ccc(Nc2ncc(F)c(Nc3ccc4[nH]ncc4c3)n2)cc1` [R935266, 5-Fluoro-N4-(indazoline-5-yl)-N2-(4-isopropoxyphenyl)-2,4-pyrimidinediamine] gave an IC50 of 2970 nM. With `Cc1cccc(Nc2nc(Cl)ncc2F)n1` [Compound R926888] the IC50 was over 10000 nM. With `CC(=O)Nc1cccc(N(C(C)=O)c2ncc(F)c(N(C(C)=O)c3cccc(NC(C)=O)c3)n2)c1` [R950244, N2,N4-Bis(3-N-acetylaminophenyl)-5-fluoro-N2,N4-pyrimidinediacetylamine] the IC50 was over 10000 nM. With `Cc1ccnc(Nc2nc(Cl)ncc2F)c1` [Compound R920401] the IC50 was over 10000 nM. `COC(=O)c1ccc(Cn2cc3ccc(Nc4ncc(F)c(Nc5cccc(O)c5)n4)cc3n2)c(OC)c1` [R935337, 5-Fluoro-N4-(3-hydroxyphenyl)-N2-[2-(2-methoxy-4-carbomethoxybenzyl)indazoline-6-yl]-2,4-pyrimidinediamine] gave an IC50 of over 10000 nM. With `Fc1cnc(Cl)nc1Nc1ccc(Cl)c(C(F)(F)F)c1` [Compound R926877] the IC50 was over 10000 nM. For `COc1ccc(Nc2nc(Nc3ccc4c(cnn4C)c3)ncc2F)c(OC)n1` [R935380, N4-(2,6-Dimethoxy-3-pyridyl)-5-fluoro-N2-[1-methylindazoline-5-yl]-2,4-pyrimidinediamine], the IC50 was 1610 nM. `COc1ccc(Nc2nc(Nc3cc(C)c(O)c(Cl)c3)ncc2F)cc1CN1CCNCC1` [R940318, N2-(3-Chloro-4-hydroxy-5-methylphenyl)-5-fluoro-N4-[3-(N-piperazinomethylene)-4-methoxyphenyl]-2,4-pyrimidinediamine] showed an IC50 of 3790 nM. Work on `CC(=O)Nc1cccc(N(C(C)=O)c2ncc(F)c(N(C(C)=O)c3cccc(N(C(C)=O)C(C)=O)c3)n2)c1` [R950245, N4-(3-N,N-Diacetylaminophenyl)-N2-(3-N-acetylaminopheny)-5-fluoro-N2,N4-pyrimidinediacetylamine] yielded an IC50 of over 10000 nM. `CNC(=O)COc1cccc(Nc2ncc(F)c(Nc3ccc4c(c3)C(=NO)CCO4)n2)c1` [R950348, N4-(2,3-Dihydro-4-oxime-benzypyran-6-yl)-5-fluoro-N2-[3-(N-methylamino)carbonylmethyleneoxyphenyl]-2,4-pyrimidinediamine] gave an IC50 of 66 nM. `CNC(=O)COc1cccc(Nc2ncc(F)c(Nc3ccc(OC)c(C(=O)NC(C)C)c3)n2)c1` [R940312, 5-Fluoro-N2-[3-(methylaminocarbonylmethyleneoxy)phenyl]-N4-(3-iso-propylaminocarbonyl-4-methoxyphenyl)-2,4-pyrimidinediamine] gave an IC50 of 2560 nM. Molecule `O=C(COc1cccc(Nc2ncc(F)c(Nc3cccc(O)c3)n2)c1)N1CCNCC1` [R926772, 5-Fluoro-N4-(3-hydroxyphenyl)-N2-[3-(N-piperazino)carbonylmethyleneoxyphenyl]-2,4-pyrimidinediamine] has an IC50 of 337 nM. For `COc1cc(C(=O)NS(=O)(=O)c2ccccc2C)ccc1Cn1ncc2cc(Nc3ncc(F)c(Nc4cccc(O)c4)n3)ccc21` [R935340, 5-Fluoro-N4-(3-hydroxyphenyl)-N2-[1-[2-methoxy-4-(o-toluylsulfonamidocarboxy)benzyl]indazoline-5-yl]-2,4-pyrimidinediamine], the IC50 was 3610 nM. Work on `CNC(=O)COc1cccc(Nc2ncc(F)c(Nc3cnc4c(c3)OC(C)(C)C(=O)N4)n2)c1` [R940345, N4-[(2,2-Dimethyl-4H-5-pyrido[1,4]oxazin-3-one)-7-yl]-5-fluoro-N2-[3-(methylaminocarbonylmethyleneoxy)phenyl]-2,4-pyrimidinediamine] yielded an IC50 of 1710 nM. In the case of `CNC(=O)COc1cccc(Nc2ncc(F)c(Nc3ccc(OC)c(CN(C)C)c3)n2)c1` [R940321, N4-(3-N,N-Dimethylaminomethylene-4-methoxyphenyl)-5-fluoro-N2-[3-(methylaminocarbonylmethyleneoxy)phenyl]-2,4-pyrimidinediamine], the IC50 is reported as over 10000 nM. “N4-[3-(2-(N4-(3-aminomethylenephenyl)-5-fluoro-4-pyrimidineamine)-N-methylaminomethylene)-phenyl]-5-fluoro-N2-[3-(methylaminocarbonylmethyleneoxy)phenyl]-2,4-pyrimidineamine [R940311]” gave an IC50 of 1950 nM. `Fc1cnc(Cl)nc1Nc1ccc(C(F)(F)F)cc1` [Compound R926876] gave an IC50 of over 10000 nM. `CNC(=O)COc1cccc(Nc2ncc(F)c(Nc3cccc(-c4nnc(-c5cccc(Cl)c5)o4)c3)n2)c1` [R926871, N4-[3-(2-(3-Chlorophenyl)-1,3,4-oxadiazol-5-yl)phenyl]-5-fluoro-N2-[3-(N-methylamino)carbonylmethyleneoxyphenyl]-2,4-pyrimidinediamine] showed an IC50 of 2150 nM. Molecule `CC1(C)CN(c2ccccn2)c2cc(Nc3nc(Cl)ncc3F)ccc2O1` [Compound R940336] has an IC50 of over 10000 nM. `CNC(=O)COc1cccc(Nc2ncc(F)c(Nc3ccc4c(c3)C(=O)CCO4)n2)c1` [R950345, N4-(2,3-Dihydro-4-benzypyranon-6-yl)-5-fluoro-N2-[3-(N-methylamino)carbonylmethyleneoxyphenyl]-2,4-pyrimidinediamine] gave an IC50 of 1960 nM. In the case of “N4-(1,4-Benzoxazin-7-yl)-5-fluoro-N2-(3-hydroxyphenyl)-pyrimidinediamine [R908711]”, the IC50 is reported as 1760 nM. For `Fc1cnc(Cl)nc1Nc1ccc(Cl)nc1` [Compound R920400], the IC50 was over 10000 nM. With `Fc1cnc(Cl)nc1Nc1cccc(OC(F)(F)F)c1` [Compound R920402] the IC50 was over 10000 nM. Work on `CCOC(=O)C1CCN(C(=O)c2cccc(Nc3nc(Nc4cccc(OCC(=O)NC)c4)ncc3F)c2)CC1` [R926941, N4-[3-[[4-(Ethoxycarbonyl)piperidino]carbonyl]phenyl]-5-fluoro-N2-[3-[(N-methylamino)carbonylmethyleneoxy]phenyl]-2,4-pyrimidinediamine] yielded an IC50 of 4200 nM. Work on `CCOC(=O)C(C)(C)Oc1cccc(Nc2ncc(F)c(Nc3cccc(O)c3)n2)c1` [R926906, N2-[3-(Ethoxycarbonyl-1,1-dimethylmethyleneoxy)phenyl]-5-fluoro-N4-(3-hydroxyphenyl)-2,4-pyrimidinediamine] yielded an IC50 of 794 nM. `Fc1cnc(Cl)nc1Nc1ccc2cn[nH]c2c1` [Compound R935260] showed an IC50 of over 10000 nM. Molecule `CNC(=O)COc1cccc(Nc2ncc(F)c(Nc3ccc4cc(C(=O)OC)[nH]c4c3)n2)c1` [R926904, 5-Fluoro-N2-[3-[(N-methylamino)carbonylmethyleneoxy]phenyl]-N4-[2-(methoxycarbonyl)-(1H)-indol-6-yl]-2,4-pyrimidinediamine] has an IC50 of 538 nM. In the case of `C[C@H](Nc1ncc(F)c(N[C@@H](C)[C@H](O)c2ccccc2)n1)[C@H](O)c1ccccc1` [R925767, N2,N4-Bis[(2R)-hydroxy-(1S)-methyl-2-phenylethyl]-5-fluoro-2,4-pyrimidinediamine], the IC50 is reported as 10000 nM. `Fc1cnc(Cl)nc1Nn1cccc1` [Compound R935275] was tested, and the IC50 was over 10000 nM. Molecule `Oc1cccc(Nc2ncc(F)c(Nc3ccc4c(c3)OCCO4)n2)c1` [R926210, N4-(3,4-Ethylenedioxyphenyl)-5-fluoro-N2-(3-hydroxyphenyl)-2,4-pyrimidinediamine] has an IC50 of 926 nM. For `CC(C)(CO)c1ccc(Nc2ncc(F)c(Nc3cccc(O)c3)n2)cc1` [R935153, 5-Fluoro-N2-[4-(2-hydroxy-1,1-dimethylethyl)phenyl]-N4-(3-hydroxyphenyl)-2,4-pyrimidinediamine], the IC50 was 238 nM. `CNC(=O)COc1cccc(Nc2ncc(F)c(Nc3ccc4c(c3)N(C(=N)N)CCO4)n2)c1` [R909292, N4-(4N-Carboxamidino-1,4-benzoxazin-6-yl)-5-fluoro-N2-[3-(N-methylamino)carbonylmethyleneoxyphenyl]-2,4-pyrimidinediamine] was tested, and the IC50 was 1170 nM. In the case of `COc1ccc(Nc2nc(Nc3cc(C)c(O)c(Cl)c3)ncc2F)cc1CN1CCOCC1` [R940316, N2-(3-Chloro-4-hydroxy-5-methylphenyl)-5-fluoro-N4-[3-(N-morpholinomethylene)-4-methoxyphenyl]-2,4-pyrimidinediamine], the IC50 is reported as 1860 nM. Molecule `CC1(C)CN(c2ccccn2)c2cc(Nc3nc(Nc4cccc(O)c4)ncc3F)ccc2O1` [R940348, N4-[3-Dihydro-2,2-dimethyl-4-(2-pyridyl)-benzo[1,4]oxazin-6-yl]-5-fluoro-N2-(3-hydroxyphenyl)-2,4-pyrimidinediamine] has an IC50 of 2190 nM. Work on `CC(C)Oc1ccc(Nc2nc(Nc3ccc4nn(C)cc4c3)ncc2F)cc1` [R935298, 5-Fluoro-N4-(4-isopropoxyphenyl)-N2-(2-methyl-indazoline-5-yl)-2,4-pyrimidinediamine] yielded an IC50 of 252 nM. `COC(=O)c1ccc(Cn2ncc3ccc(Nc4ncc(F)c(Nc5cccc(O)c5)n4)cc32)c(OC)c1` [R935321, 5-Fluoro-N4-(3-hydroxyphenyl)-N2-[1-(2-methoxy-4-carbomethoxybenzyl)indazoline-6-yl]-2,4-pyrimidinediamine] gave an IC50 of 2990 nM. Molecule `CC1(C)Oc2ccc(Nc3nc(Nc4cccc(O)c4)ncc3F)cc2NC1=O` [R940346, N4-[(2,2-Dimethyl-4H-benzo[1,4]oxazin-3-one)-6-yl]-5-fluoro-N2-(3-hydroxyphenyl)-2,4-pyrimidinediamine] has an IC50 of 142 nM. Molecule `CC1(C)CN(c2cccc[n+]2[O-])c2cc(Nc3nc(Cl)ncc3F)ccc2O1` [Compound R940328] has an IC50 of over 10000 nM. In the case of `CNC(=O)COc1cccc(Nc2ncc(F)c(Nc3ccc(OC)c(CN4CCOCC4)c3)n2)c1` [R940314, 5-Fluoro-N2-[3-(methylaminocarbonylmethyleneoxy)phenyl]-N4-[3-(N-morpholinomethylene)-4-methoxyphenyl]-2,4-pyrimidinediamine], the IC50 is reported as 4200 nM. `Fc1cnc(NCc2ccc3c(c2)OCO3)nc1NCc1ccc2c(c1)OCO2` [R925770, N2,N4-Bis(piperonyl)-5-fluoro-2,4-pyrimidineamine] showed an IC50 of over 10000 nM.
